Test results: ChEMBL document CHEMBL5291721, “A preclinical secondary pharmacology resource illuminates target-adverse drug reaction associations of marketed drugs” (Nat Commun, 2023)

Tests used:
Acetylcholinesterase = Acetylcholinesterase (Homo sapiens, UniProt P22303); assay type: functional
[1] = target: T1, Muscarinic acetylcholine receptor M2 (Homo sapiens, UniProt P08172)
T1 sequence (P08172 whole entry): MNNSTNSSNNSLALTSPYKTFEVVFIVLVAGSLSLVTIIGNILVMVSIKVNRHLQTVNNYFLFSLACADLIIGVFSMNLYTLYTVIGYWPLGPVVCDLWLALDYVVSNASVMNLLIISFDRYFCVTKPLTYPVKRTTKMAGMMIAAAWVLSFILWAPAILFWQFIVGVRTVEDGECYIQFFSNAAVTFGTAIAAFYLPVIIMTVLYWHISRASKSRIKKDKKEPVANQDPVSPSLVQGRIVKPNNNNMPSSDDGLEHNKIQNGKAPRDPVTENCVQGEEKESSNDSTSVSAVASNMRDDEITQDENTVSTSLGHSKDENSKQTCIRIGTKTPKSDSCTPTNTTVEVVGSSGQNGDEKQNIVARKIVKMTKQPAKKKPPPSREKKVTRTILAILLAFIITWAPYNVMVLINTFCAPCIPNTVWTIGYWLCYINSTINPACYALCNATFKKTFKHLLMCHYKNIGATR

D(1A) dopamine receptor = D(1A) dopamine receptor (Homo sapiens, UniProt P21728)
D(3) dopamine receptor = D(3) dopamine receptor (Homo sapiens, UniProt P35462)
Prothrombin = Prothrombin (Homo sapiens, UniProt P00734); assay type: functional
Histamine H3 receptor = Histamine H3 receptor (Homo sapiens, UniProt Q9Y5N1)
[2] = target: T2, Amine oxidase [flavin-containing] A (Homo sapiens, UniProt P21397); assay type: functional
T2 sequence (P21397 whole entry): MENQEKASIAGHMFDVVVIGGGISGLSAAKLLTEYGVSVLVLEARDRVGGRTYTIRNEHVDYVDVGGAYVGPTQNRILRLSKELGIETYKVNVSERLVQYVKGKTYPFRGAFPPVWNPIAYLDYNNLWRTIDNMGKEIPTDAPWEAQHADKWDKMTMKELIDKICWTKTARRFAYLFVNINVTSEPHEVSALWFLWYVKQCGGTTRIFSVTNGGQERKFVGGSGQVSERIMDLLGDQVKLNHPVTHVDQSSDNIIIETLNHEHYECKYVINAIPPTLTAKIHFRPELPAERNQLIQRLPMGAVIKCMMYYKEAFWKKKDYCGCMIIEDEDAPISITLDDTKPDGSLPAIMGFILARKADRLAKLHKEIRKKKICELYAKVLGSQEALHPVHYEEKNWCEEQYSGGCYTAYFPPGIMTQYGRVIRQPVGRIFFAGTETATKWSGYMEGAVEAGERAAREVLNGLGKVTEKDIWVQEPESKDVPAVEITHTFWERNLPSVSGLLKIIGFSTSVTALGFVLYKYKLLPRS

Mu-type opioid receptor = Mu-type opioid receptor (Homo sapiens, UniProt P35372)
[3] = target: cGMP-inhibited 3',5'-cyclic phosphodiesterase 3A (Homo sapiens, UniProt Q14432); assay type: functional
[4] = target: 3',5'-cyclic-AMP phosphodiesterase 4A (Homo sapiens, UniProt P27815); assay type: functional
Progesterone receptor = target: T3, Progesterone receptor (Homo sapiens, UniProt P06401)
T3 sequence (P06401 whole entry): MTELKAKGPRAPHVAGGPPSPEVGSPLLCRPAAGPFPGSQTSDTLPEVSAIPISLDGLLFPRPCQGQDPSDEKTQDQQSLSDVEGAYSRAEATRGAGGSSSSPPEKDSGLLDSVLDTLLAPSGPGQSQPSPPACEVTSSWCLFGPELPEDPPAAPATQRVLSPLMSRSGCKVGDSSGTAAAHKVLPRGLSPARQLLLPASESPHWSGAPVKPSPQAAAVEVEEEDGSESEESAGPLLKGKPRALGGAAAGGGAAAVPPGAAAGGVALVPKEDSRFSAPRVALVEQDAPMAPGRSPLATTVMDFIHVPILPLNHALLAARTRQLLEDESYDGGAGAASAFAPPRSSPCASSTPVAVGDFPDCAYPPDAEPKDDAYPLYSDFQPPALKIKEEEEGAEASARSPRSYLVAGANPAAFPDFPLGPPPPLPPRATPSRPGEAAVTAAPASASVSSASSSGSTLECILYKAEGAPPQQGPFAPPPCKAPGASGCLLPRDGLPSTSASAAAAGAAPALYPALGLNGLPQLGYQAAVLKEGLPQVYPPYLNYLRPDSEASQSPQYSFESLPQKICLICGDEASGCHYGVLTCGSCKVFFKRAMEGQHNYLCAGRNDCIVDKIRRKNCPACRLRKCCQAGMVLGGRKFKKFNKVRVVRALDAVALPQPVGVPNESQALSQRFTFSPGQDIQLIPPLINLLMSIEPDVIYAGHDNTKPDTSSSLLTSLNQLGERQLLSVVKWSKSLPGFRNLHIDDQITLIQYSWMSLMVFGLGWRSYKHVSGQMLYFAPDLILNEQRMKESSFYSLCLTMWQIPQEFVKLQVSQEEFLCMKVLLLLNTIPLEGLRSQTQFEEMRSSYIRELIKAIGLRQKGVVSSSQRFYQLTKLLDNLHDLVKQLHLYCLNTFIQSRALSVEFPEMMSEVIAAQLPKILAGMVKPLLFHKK

[5] = target: T4, Prostaglandin G/H synthase 1 (Homo sapiens, UniProt P23219); assay type: functional
[6] = target: T4, Prostaglandin G/H synthase 1; assay type: functional; remark: listed apart in the source
Thromboxane A2 receptor = target: T5, Thromboxane A2 receptor (Homo sapiens, UniProt P21731); assay type: functional, cell-based
T5 sequence (P21731 whole entry): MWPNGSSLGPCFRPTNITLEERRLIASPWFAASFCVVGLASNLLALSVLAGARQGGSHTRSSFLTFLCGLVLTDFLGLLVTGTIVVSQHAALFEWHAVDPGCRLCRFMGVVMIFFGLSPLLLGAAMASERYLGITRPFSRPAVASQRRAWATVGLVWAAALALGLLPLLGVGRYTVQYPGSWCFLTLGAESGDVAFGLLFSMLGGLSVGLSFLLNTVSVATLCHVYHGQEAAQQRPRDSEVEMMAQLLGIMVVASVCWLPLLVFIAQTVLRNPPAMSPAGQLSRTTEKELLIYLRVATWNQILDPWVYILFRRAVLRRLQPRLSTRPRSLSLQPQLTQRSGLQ

[7] = target: Voltage-gated inwardly rectifying potassium channel KCNH2 (Homo sapiens, UniProt Q12809); assay type: functional
Note: assay procedure not described here.

Sequence of Mu-type opioid receptor (P35372 whole entry): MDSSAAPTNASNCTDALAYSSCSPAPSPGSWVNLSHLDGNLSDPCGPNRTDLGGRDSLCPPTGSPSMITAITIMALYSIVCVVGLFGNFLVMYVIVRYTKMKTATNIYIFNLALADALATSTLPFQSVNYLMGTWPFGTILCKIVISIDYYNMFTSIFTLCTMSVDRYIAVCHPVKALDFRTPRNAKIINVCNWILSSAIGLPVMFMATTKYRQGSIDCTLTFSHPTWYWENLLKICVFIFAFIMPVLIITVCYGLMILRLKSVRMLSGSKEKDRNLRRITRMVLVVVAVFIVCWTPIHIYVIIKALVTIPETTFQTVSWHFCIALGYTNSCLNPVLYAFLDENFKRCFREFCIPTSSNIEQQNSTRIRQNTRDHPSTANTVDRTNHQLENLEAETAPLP
T4 sequence (P23219 whole entry): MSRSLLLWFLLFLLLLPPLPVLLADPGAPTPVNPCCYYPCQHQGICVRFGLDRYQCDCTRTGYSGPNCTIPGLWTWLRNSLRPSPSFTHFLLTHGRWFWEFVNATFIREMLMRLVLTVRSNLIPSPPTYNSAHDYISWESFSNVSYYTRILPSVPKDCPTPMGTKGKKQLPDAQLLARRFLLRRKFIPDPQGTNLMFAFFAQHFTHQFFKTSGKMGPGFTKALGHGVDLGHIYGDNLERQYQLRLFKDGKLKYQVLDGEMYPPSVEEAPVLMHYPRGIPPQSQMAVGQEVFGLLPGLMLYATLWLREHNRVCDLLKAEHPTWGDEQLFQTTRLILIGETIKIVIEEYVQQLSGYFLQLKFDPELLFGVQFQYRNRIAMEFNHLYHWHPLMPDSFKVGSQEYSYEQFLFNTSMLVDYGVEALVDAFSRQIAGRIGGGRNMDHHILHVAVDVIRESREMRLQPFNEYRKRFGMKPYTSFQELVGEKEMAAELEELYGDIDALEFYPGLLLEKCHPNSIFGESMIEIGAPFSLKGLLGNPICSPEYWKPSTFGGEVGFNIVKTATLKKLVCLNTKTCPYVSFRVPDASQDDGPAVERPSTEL
Sequence of D(1A) dopamine receptor (P21728 whole entry): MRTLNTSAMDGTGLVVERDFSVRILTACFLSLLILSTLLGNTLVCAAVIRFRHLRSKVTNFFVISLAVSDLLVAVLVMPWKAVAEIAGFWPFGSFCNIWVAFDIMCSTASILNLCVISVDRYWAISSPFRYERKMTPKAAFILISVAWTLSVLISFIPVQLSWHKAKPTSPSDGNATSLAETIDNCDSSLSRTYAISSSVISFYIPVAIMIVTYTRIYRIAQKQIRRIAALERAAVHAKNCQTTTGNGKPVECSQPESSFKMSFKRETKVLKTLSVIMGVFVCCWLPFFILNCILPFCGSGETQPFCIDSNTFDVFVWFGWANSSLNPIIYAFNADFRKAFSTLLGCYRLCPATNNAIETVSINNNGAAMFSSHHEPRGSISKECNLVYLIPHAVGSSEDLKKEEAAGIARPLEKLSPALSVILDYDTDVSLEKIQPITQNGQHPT
Sequence of Acetylcholinesterase (P22303 whole entry): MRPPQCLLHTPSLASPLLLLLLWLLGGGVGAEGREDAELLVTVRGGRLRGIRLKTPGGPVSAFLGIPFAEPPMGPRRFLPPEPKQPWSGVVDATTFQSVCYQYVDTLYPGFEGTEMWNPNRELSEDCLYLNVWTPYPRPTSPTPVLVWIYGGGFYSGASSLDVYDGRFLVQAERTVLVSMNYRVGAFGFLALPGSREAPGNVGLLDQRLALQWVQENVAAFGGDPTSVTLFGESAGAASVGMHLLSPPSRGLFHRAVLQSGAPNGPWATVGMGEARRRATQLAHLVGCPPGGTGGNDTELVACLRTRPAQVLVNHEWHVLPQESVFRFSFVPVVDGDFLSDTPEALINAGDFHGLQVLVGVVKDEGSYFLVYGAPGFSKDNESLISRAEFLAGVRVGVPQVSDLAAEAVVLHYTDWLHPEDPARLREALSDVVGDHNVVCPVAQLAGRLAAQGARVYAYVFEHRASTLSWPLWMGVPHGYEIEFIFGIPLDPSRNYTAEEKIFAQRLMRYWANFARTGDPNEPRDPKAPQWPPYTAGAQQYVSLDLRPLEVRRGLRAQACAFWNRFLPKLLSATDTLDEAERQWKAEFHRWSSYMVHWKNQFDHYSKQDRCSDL
Sequence of Histamine H3 receptor (Q9Y5N1 whole entry): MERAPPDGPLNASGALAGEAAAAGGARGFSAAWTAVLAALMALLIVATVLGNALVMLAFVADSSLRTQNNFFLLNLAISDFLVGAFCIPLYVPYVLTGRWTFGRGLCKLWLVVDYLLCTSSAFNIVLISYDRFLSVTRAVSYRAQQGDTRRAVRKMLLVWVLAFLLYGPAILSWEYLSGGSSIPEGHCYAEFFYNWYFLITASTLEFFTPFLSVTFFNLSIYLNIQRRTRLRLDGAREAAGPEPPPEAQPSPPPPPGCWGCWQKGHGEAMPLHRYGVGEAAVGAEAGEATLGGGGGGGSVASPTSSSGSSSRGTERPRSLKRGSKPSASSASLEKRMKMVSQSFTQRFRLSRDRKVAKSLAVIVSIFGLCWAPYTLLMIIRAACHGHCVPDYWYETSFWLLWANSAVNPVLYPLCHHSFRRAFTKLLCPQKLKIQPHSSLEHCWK
Sequence of 3',5'-cyclic-AMP phosphodiesterase 4A (P27815 whole entry): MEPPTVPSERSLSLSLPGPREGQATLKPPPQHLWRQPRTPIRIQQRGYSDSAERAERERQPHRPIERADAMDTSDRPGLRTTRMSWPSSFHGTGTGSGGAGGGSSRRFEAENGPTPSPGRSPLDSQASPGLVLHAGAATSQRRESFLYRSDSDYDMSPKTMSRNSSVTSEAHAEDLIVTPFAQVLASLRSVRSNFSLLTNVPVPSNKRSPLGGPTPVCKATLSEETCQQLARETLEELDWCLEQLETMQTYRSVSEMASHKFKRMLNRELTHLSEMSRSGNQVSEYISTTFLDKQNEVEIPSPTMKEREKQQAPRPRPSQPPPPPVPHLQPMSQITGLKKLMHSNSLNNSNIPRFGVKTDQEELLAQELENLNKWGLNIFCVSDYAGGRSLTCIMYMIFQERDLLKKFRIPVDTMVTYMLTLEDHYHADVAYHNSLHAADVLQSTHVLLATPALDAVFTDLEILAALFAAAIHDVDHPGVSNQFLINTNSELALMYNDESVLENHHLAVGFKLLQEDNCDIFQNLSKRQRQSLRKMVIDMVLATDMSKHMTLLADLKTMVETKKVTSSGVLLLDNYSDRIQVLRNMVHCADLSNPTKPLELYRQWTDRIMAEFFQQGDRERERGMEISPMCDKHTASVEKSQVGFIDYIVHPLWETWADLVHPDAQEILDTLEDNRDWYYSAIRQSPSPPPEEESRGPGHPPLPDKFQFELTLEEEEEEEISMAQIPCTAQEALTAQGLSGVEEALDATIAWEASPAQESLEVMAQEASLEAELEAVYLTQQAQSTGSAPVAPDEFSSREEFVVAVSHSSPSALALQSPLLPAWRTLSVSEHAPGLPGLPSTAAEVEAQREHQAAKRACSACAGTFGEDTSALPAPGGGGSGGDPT
Sequence of D(3) dopamine receptor (P35462 whole entry): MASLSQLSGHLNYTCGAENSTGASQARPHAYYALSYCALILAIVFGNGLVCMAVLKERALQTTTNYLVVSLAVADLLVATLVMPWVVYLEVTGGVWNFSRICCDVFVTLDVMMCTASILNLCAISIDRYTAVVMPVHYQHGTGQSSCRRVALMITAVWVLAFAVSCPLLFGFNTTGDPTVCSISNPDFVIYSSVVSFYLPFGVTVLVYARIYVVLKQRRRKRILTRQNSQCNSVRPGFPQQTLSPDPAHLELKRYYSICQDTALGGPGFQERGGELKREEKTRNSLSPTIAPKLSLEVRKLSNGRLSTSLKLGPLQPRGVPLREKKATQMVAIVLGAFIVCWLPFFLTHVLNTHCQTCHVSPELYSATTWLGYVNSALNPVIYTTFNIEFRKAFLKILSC
Sequence of cGMP-inhibited 3',5'-cyclic phosphodiesterase 3A (Q14432 whole entry): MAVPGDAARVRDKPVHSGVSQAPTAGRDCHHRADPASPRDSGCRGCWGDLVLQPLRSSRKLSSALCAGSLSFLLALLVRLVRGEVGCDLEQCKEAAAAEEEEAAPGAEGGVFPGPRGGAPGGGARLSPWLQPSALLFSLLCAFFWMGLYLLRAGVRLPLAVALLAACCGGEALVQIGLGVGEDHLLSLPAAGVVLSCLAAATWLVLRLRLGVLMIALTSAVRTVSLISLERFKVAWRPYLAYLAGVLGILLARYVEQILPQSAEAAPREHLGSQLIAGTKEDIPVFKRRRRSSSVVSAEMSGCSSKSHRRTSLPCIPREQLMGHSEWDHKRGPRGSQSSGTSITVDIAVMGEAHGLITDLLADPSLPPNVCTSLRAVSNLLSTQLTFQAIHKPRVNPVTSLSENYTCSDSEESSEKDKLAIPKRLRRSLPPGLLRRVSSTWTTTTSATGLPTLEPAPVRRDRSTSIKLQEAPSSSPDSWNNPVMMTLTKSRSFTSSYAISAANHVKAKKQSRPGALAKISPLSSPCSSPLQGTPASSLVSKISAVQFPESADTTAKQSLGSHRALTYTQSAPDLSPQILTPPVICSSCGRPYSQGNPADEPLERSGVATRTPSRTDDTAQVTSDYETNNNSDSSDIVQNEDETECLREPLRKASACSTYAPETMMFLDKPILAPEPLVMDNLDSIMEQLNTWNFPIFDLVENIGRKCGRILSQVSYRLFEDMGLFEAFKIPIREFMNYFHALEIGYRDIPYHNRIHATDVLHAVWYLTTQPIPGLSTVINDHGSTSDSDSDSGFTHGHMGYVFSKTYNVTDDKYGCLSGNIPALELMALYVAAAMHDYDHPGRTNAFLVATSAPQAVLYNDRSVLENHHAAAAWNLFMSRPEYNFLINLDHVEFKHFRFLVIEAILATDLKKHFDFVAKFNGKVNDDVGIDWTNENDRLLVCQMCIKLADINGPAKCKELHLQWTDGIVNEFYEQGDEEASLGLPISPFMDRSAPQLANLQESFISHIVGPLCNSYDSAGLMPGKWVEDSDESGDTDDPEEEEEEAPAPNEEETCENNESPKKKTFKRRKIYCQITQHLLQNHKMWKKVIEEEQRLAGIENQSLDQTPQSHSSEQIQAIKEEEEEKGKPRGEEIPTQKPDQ

Structure (SMILES)	AC50 (Acetylcholinesterase)	AC50 [1]	AC50 (D(1A) dopamine receptor)	AC50 (D(3) dopamine receptor)	AC50 (Prothrombin)	AC50 (Histamine H3 receptor)	AC50 [2]	AC50 (Mu-type opioid receptor)	AC50 [3]	AC50 [4]	AC50 (Progesterone receptor)	AC50 [5]	AC50 [6]	AC50 (Thromboxane A2 receptor)	AC50 [7]
CC(=O)Oc1cc(C(F)(F)F)ccc1C(=O)O [TRIFLUSAL]	> 30 µM	> 30 µM	> 30 µM	> 30 µM	> 30 µM	> 30 µM	> 30 µM	> 30 µM	> 30 µM	> 30 µM	> 30 µM	> 30 µM	> 30 µM	> 30 µM	
CCc1nc(C(N)=O)c(Nc2ccc(N3CCC(N4CCN(C)CC4)CC3)c(OC)c2)nc1NC1CCOCC1 [GILTERITINIB]	> 30 µM	16.4 µM	> 30 µM	26.7 µM	> 30 µM	13.7 µM	> 30 µM	> 30 µM	> 30 µM	2.44 µM	> 30 µM	> 30 µM	> 30 µM	> 0.3 µM	
N#Cc1ccc2c(c1)N(CCCN1CCC(O)CC1)c1ccccc1S2 [PERICIAZINE]	29.1 µM	5.87 µM			> 30 µM	> 30 µM	> 30 µM	4.59 µM	> 30 µM	> 30 µM	22.1 µM	> 30 µM	21.5 µM	17 µM	5.82 µM
N[C@@H](CS)C(=O)O [CYSTEINE]	> 30 µM	> 30 µM	> 30 µM	> 30 µM	> 30 µM	> 30 µM	> 30 µM	> 30 µM	> 30 µM	> 30 µM	> 30 µM	> 30 µM	4.66 µM	> 30 µM	
CC[C@H](C)C[C@H](C)CCCCCCCCC(=O)N[C@H]1C[C@@H](O)[C@@H](NCCN)NC(=O)[C@@H]2[C@@H](O)CCN2C(=O)[C@H]([C@H](O)CCN)NC(=O)[C@H]([C@H](O)[C@@H](O)c2ccc(O)cc2)NC(=O)[C@@H]2C[C@@H](O)CN2C(=O)[C@H]([C@@H](C)O)NC1=O [CASPOFUNGIN]	> 30 µM	10.8 µM	8.83 µM	> 30 µM	> 30 µM	> 30 µM	> 30 µM	5.12 µM	> 30 µM	> 30 µM	5.7 µM	3.63 µM		> 30 µM	
OC[C@H]1O[C@@H](c2ccc(F)c(Cc3cc4ccccc4s3)c2)[C@H](O)[C@@H](O)[C@@H]1O [IPRAGLIFLOZIN]	> 30 µM	> 30 µM	> 30 µM	> 30 µM	> 30 µM	> 30 µM	> 30 µM	> 30 µM	> 30 µM	> 30 µM	> 30 µM	> 30 µM	> 30 µM	> 30 µM	
CC[C@@]1(O)C(=O)OCc2c1cc1n(c2=O)Cc2cc3c([N+](=O)[O-])cccc3nc2-1 [RUBITECAN]	3.65 µM	> 30 µM	> 30 µM	> 30 µM	> 30 µM	> 30 µM	> 30 µM	> 30 µM	> 30 µM	> 30 µM	> 30 µM	> 30 µM	26.8 µM	> 10 µM	
CN(C)[C@@H]1C(O)=C(C(N)=O)C(=O)[C@@]2(O)C(O)=C3C(=O)c4c(O)ccc(Cl)c4[C@@](C)(O)[C@H]3C[C@@H]12 [CHLORTETRACYCLINE]	> 30 µM	> 30 µM	> 30 µM	> 30 µM	> 30 µM	> 30 µM	> 30 µM	> 30 µM	> 30 µM		> 30 µM	> 30 µM	> 30 µM	> 30 µM	> 30 µM
CCOC(=O)c1c(C)cc2c(CO)n[nH]c(=O)c2c1C [OXAGRELATE]	> 30 µM	> 30 µM	> 30 µM	> 30 µM	> 30 µM	> 30 µM	> 30 µM	> 30 µM	6.48 µM	> 30 µM	> 30 µM	> 30 µM	> 30 µM	> 30 µM	
CN1CCCCC1CCN1c2ccccc2Sc2ccc([S+](C)[O-])cc21 (centres undefined) [MESORIDAZINE]	> 30 µM	0.153 µM	0.0712 µM	0.0197 µM	> 30 µM	21.9 µM	> 30 µM	2.99 µM	> 30 µM	> 30 µM	> 30 µM	> 30 µM	> 30 µM	> 30 µM	
CC1=C(/C=C/C(C)=C/C=C/C(C)=C/C(=O)O)C(C)(C)CCC1 [TRETINOIN]	> 30 µM	> 30 µM	> 30 µM	22.6 µM	> 30 µM	> 30 µM	> 30 µM	> 30 µM	> 30 µM	1.27 µM	4.24 µM			14.3 µM	
O=C(O)CO [GLYCOLIC ACID]	> 30 µM	> 30 µM	> 30 µM	> 30 µM	> 30 µM	> 30 µM	> 30 µM	> 30 µM	> 30 µM	> 30 µM	> 30 µM	> 30 µM	> 30 µM	> 30 µM	
